Experimental data taken from EP0983763A1, “PREVENTIVES FOR RECONSTRICTION” (TAISHO PHARMACEUTICAL CO. LTD, priority 1997, dated 1998).

Columns and labels:
[1] = test system: intimal thickening; assay: Inhibiting activity on intimal thickening in a model for vascular endothelial injury in normal rabbits (balloon catheter injury of right common carotid artery); type: in vivo, NZW strain male rabbits; conditions: for Level of intimal thickening I/M: 1 week before and 2 weeks after endothelium injury, Means ± S.E., control 0.251±0.030
Description: (§1) As test animals were used a group of 5 NZW strain male rabbits of 2 months (available from Kitayama RABES K.K.) After a drug was administered to rabbits for 1 week, a balloon catheter for removing arterial embolus (Fogarty catheter, E-060-2F, available from Baxter Co., Inc.) was inserted into the right common carotid artery via the right external carotid artery of the rabbits under anesthesia with pentobarbital. The right common carotid artery was abraded three times with the balloon swollen (a balloon pressure of 0.5-1.0 atm) to produce a model for the injured vascular endothelium. The drug was administered for 2 weeks after the endothelium injury, and then the artery was excised and fixed with 10% neutral buffered formalin to prepare a slice of the arterial ring tissue. Elastic fiber-stained tissue preparations were prepared by Elastic Van Gieson (EVG) staining. Areas of the intima (I) and of the medium (M) were measured by means of an image analysis system (Adobe Photoshop, Unitimage for the Apple Macintosh) and a ratio of both values (I/M) was calculated to determine a level of intimal thickening.
The drug was given in admixture with a rabbit feed RC-4 (available from Oriental Kobo K.K.) at the concentration of 0.0003% and a dose was calculated from the amount of feed ingested and the body weight.

[2] = test system: intimal thickening; assay: Inhibiting activity on intimal thickening in a model for vascular endothelial injury in WHHL rabbits (balloon catheter injury of right common carotid artery); type: in vivo, WHHL strain male rabbits; conditions: for Level of intimal thickening I/M: 4 weeks after endothelium injury, Means ± S.E., control 1.00±0.23
Excerpt: as §1, with “of 4 homozygous hereditary hyperlipemic WHHL” for “of 5 NZW”, “K.K.) A” for “K.K.) After a drug was administered to rabbits for 1 week, a”, “for 4” for “for 2”, “thickening. A total blood cholesterol level was measured according to an enzyme method (Autosera CHO-2, Daiichi Kagaku Yakuhin K.K.) using an autoanalyzer (Hitachi 7150 type).” for “thickening.”
(§2) The drug was given in admixture with a rabbit feed RC-4 (available from Oriental Kobo K.K.) at the concentrations of 0.0003% and of 0.003%, and then a dose was calculated from the amount of feed ingested and the body weight.

[3] = Total blood cholesterol level by enzyme method in the WHHL rabbit endothelial injury model; type: in vivo, WHHL strain male rabbits; conditions: WHHL rabbits, 4 weeks after endothelium injury, Means ± S.E., control 841±44
Excerpt: as §1, with “of 4 homozygous hereditary hyperlipemic WHHL” for “of 5 NZW”, “K.K.) A” for “K.K.) After a drug was administered to rabbits for 1 week, a”, “for 4” for “for 2”, “thickening. A total blood cholesterol level was measured according to an enzyme method (Autosera CHO-2, Daiichi Kagaku Yakuhin K.K.) using an autoanalyzer (Hitachi 7150 type).” for “thickening.”
as §2

[4] = test system: smooth muscle cells; assay: Histopathological observation of the thickened intima after injury of the blood vessel; type: in vivo; conditions: histopathologically observed; model and dose not stated

Compound: CCCCCCCCCCCCCCSCC(=O)Nc1c(C(C)C)cccc1C(C)C [Compound of the invention]
- Level of intimal thickening I/M ([1]; 0.2 mg/kg (0.0003% in feed)): 0.126±0.028
- inhibition at 0.2 mg/kg ([1]; Oryctolagus cuniculus, feed or water, 0.2 mg/kg (0.0003% in feed), from I/M ratio vs control group): 49.8%
- Level of intimal thickening I/M ([2]; 0.2 mg/kg (0.0003% in feed)): 0.45±0.19
- Level of intimal thickening I/M ([2]; 2.0 mg/kg (0.003% in feed)): 0.38±0.05
- inhibition at 0.2 mg/kg ([2]; Oryctolagus cuniculus, 0.2 mg/kg, from I/M ratio vs control group): 55%
- inhibition at 2 mg/kg ([2]; Oryctolagus cuniculus, 2.0 mg/kg, from I/M ratio vs control group): 62%
- Total blood cholesterol ([3]; 0.2 mg/kg (0.0003% in feed)): 861 ± 83 mg/dL
- Total blood cholesterol ([3]; 2.0 mg/kg (0.003% in feed)): 907 ± 48 mg/dL
- number of smooth muscle cells during the proliferation period in the thickened intima [4]: decrease the number of smooth muscle cells

Compound: CC(C)(Sc1cc(C(C)(C)C)c(O)c(C(C)(C)C)c1)Sc1cc(C(C)(C)C)c(O)c(C(C)(C)C)c1 [Probucol, probucol, reference compound]
- Level of intimal thickening I/M ([2]; 190 mg/kg (0.35% in feed)): 0.43±0.08
- inhibition at 190 mg/kg ([2]; Oryctolagus cuniculus, 190 mg/kg, from I/M ratio vs control group): 57%
- Total blood cholesterol ([3]; 190 mg/kg (0.35% in feed)): 723 ± 44 mg/dL

Compound: COc1ccc(/C=C/C(=O)Nc2ccccc2C(=O)O)cc1OC [Tranilast, tranilast, reference compound]
- Level of intimal thickening I/M ([1]; 100 mg/kg (0.167% in feed)): 0.184±0.051
- inhibition at 100 mg/kg ([1]; Oryctolagus cuniculus, feed or water, 100 mg/kg (0.167% in feed), from I/M ratio vs control group): 26.6%
